Laboratory results published in article PMC8373216, “Development and Preclinical Evaluation of New Inhaled Lipoglycopeptides for the Treatment of Persistent Pulmonary Methicillin-Resistant Staphylococcus aureus Infections” (Antimicrobial Agents and Chemotherapy, 2021).
In brackets after ≈: the same amount, converted by molar mass. Read-outs that look alike come from different tables or passages of the source.

Experiments:
Eggerthella lenta = assay: Expanded panel broth microdilution MIC; assay type: cell-based
[1] = system: MRSA ATCC BAA 1556 (USA300) biofilm; assay: Static MRSA biofilm killing, plastic microtiter plate, MEM
Clostridium. perfringens = assay: microbe, parasite or virus in culture; assay type: cell-based
Enterococcus faecium = assay: Expanded panel broth microdilution MIC/MBC; assay type: cell-based; details: for MIC: Enterococcus faecium, read-out: MIC
[2] = system: Streptococcus dysgalactiae; assay: Expanded panel broth microdilution MIC/MBC; assay type: cell-based; details: for MIC: Streptococcus dysgalactiae
[3] = system: MRSA ATCC BAA 1556 (USA300); assay: In-house broth microdilution MIC screening; assay type: cell-based, Staphylococcus aureus
Streptococcus agalactiae = assay: Expanded panel broth microdilution MIC/MBC; assay type: cell-based; details: for MIC: Streptococcus agalactiae
Cutibacterium acnes = assay: Expanded panel broth microdilution MIC; assay type: cell-based
[4] = Single-dose nebulized nose-only inhalation PK in healthy rats; assay type: in vivo, rat; details: male, Sprague Dawley, rat, in vivo
Protocol: Rats were acclimated in the study facility for approximately 1 week prior to study start. Ten or eleven rats per cohort were loaded into the chamber at the time of dosing. […] An additional airflow set to 6 liters/min was admixed with the nebulizer output to further direct the test articles to the animals. […] The remaining port on the chamber was fit with an aerosol sampling filter for dose determination over a 5 min sampling period. The average dose delivered to the nose of each animal was calculated using an algorithm that was previously described ([49]). […] Animals were euthanized for collection of whole lungs and plasma at time points ranging from immediate postdose (IPD; approximately 30 min after dosing for nebulization) to 168 h postdose (7 days). Drugs were extracted from tissues using customized protein precipitation methods with an appropriate internal standard for each compound and transferred for analysis by LC-MS/MS (Sciex API4500 or API6500+ mass spectrometer [Sciex, Framingham, MA]). GraphPad Prism (La Jolla, CA) was used for statistical analyses and data plotting. […] The data were applied to a noncompartmental analysis after extravascular dosing input and fit to a linear up/log down model. Statistical analysis of in vitro intracellular and biofilm activity was based on a two-way ANOVA with a Bonferroni post test. In vivo statistical analysis was based on the Kolmogorov-Smirnov test.

[5] = system: MRSA ATCC BAA 1556 (USA300) biofilm; assay: MRSA biofilm killing, MBEC assay system, TSB with 1% human plasma; details: MBEC
[6] = system: Staphylococcus lugdunensis; assay: Expanded panel broth microdilution MIC; assay type: cell-based
MSSA ATCC 29213 = assay: In-house broth microdilution MIC screening; assay type: cell-based; details: Staphylococcus aureus; broth microdilution; read-out: MIC Value, MSSA ATCC 29213
Streptococcus anginosus = assay: Expanded panel broth microdilution MIC/MBC; assay type: cell-based; details: for MIC: Streptococcus anginosus, read-out: MIC
[7] = MRSA and MSSA isolates of Table 1

**Q.** What does the source list for `CCCCCCCCCCNC(=O)CNC1(C)CC(OC2C(Oc3c4cc5cc3Oc3ccc(cc3Cl)C(O)C3NC(=O)C(NC(=O)C5NC(=O)C(CC(N)=O)NC(=O)C(NC(=O)C(CC(C)C)NC)C(O)c5ccc(c(Cl)c5)O4)c4ccc(O)c(c4)-c4c(O)cc(O)cc4C(C(=O)O)NC3=O)OC(CO)C(O)C2O)OC(C)C1O` (centres unmarked) [RV94]?
**A.** MIC (Eggerthella lenta; ATCC43055, E. lenta ATCC 43055, read-out: MIC): 8 ng/mL (≈ 4.86 nM); MIC (Eggerthella lenta; E. lenta, 1 isolate, read-out: MIC): 8 ng/mL (≈ 4.86 nM); Reduction in MRSA biofilm titer versus control ([1]; 2.5 μg/ml): 1 log10 CFU/ml; Reduction in MRSA biofilm titer versus control ([1]; doses 1 to 10 μg/ml): approximately 2 log10 CFU/ml; Concentrations with statistically significant reduction versus control biofilm ([1]; two-way ANOVA, Bonferroni): no statistical significance; MIC (Clostridium. perfringens): 8 ng/mL (≈ 4.86 nM); MIC (Clostridium. perfringens; ATCC13124): 8 ng/mL (≈ 4.86 nM); MIC:MBC (Enterococcus faecium; E. faecium VanA VRE): >8; MIC:MBC (Enterococcus faecium; E. faecium VanB VRE): >8; MIC (Enterococcus faecium; E. faecium MMX 4204, VSE): 0.015 µg/mL (≈ 9.11 nM); MIC (Enterococcus faecium; E. faecium VSE, 1 isolate): 0.015 µg/mL (≈ 9.11 nM); MIC (Enterococcus faecium; VRE, E. faecium MMX 173, VanB VRE): 0.03 µg/mL (≈ 18.2 nM); MIC (Enterococcus faecium; VRE, E. faecium MMX 851, VanA VRE): 2 µg/mL (≈ 1210 nM); MIC (Enterococcus faecium; VRE, E. faecium VanA VRE, 1 isolate): 2 µg/mL (≈ 1210 nM); MIC (Enterococcus faecium; VRE, E. faecium VanB VRE, 1 isolate): 0.03 µg/mL (≈ 18.2 nM); MIC:MBC ([2]; S. dysgalactiae, MBC on one organism): 4; MIC ([2]; S. dysgalactiae MMX 5121, read-out: MIC): 8 ng/mL (≈ 4.86 nM); MIC ([2]; S. dysgalactiae MMX 5123, read-out: MIC): 30 ng/mL (≈ 18.2 nM); MIC ([2]; S. dysgalactiae MMX 5124, read-out: MIC): 8 ng/mL (≈ 4.86 nM); MIC ([2]; S. dysgalactiae, 3 isolates, read-out: MIC (median)): 8 ng/mL (≈ 4.86 nM); MIC potency, fold less potent than RV40 [3, 7]: ~2 fold; MIC potency, fold more potent than telavancin [3, 7]: ~2 fold; MIC potency, fold more potent than vancomycin [3, 7]: approximately 30 fold; MIC ([3]; Staphylococcus aureus, broth microdilution, read-out: MIC Value, MRSA ATCC BAA 1556): 0.031 µg/mL (≈ 18.8 nM); MIC:MBC (Streptococcus agalactiae; S. agalactiae, MBC on one organism): 4; MIC (Streptococcus agalactiae; ATCC13813, S. agalactiae ATCC 13813, read-out: MIC): 30 ng/mL (≈ 18.2 nM); MIC (Streptococcus agalactiae; S. agalactiae MMX 4088, read-out: MIC): 8 ng/mL (≈ 4.86 nM); MIC (Streptococcus agalactiae; S. agalactiae MMX 4115, ermR, read-out: MIC): 4 ng/mL (≈ 2.43 nM); MIC (Streptococcus agalactiae; S. agalactiae ermR, 1 isolate, read-out: MIC): 4 ng/mL (≈ 2.43 nM); MIC (Streptococcus agalactiae; S. agalactiae, 2 isolates, read-out: MIC (median)): 20 ng/mL (≈ 12.1 nM); MIC (Cutibacterium acnes; ATCC6919, P. acnes ATCC 6919, read-out: MIC): 8 ng/mL (≈ 4.86 nM); MIC (Cutibacterium acnes; ATCC11827, P. acnes ATCC 11827, read-out: MIC): 8 ng/mL (≈ 4.86 nM); MIC (Cutibacterium acnes; C. acnes, 2 isolates, read-out: MIC (median)): 8 ng/mL (≈ 4.86 nM); Pulmonary dose [4]: 1.10 mg/kg; Drug lung level at 120 h ([4]; 120 h): 45%; Primary hydrolysis byproduct lung level at 120 h ([4]; 120 h): 0.1%; Kp ([4]; inhaled or intranasal): 1870; Lung AUC0-∞ ([4]; inhaled or intranasal): 40671 µg·h/g; Lung Cmax ([4]; inhaled or intranasal): 262 µg/g; Lung t1/2 ([4]; inhaled or intranasal): 108 h; Plasma Cmax ([4]; inhaled or intranasal): 0.14 µg/mL; Hydrolysis product RV101 relative to parent concentration at lung Cmax ([4]; inhaled or intranasal, 120 h): 0.1%; Biofilm activity, fold more potent than vancomycin at the same dose ([5]; 16 μg/ml): 2 fold; Concentrations with statistically significant reduction versus control biofilm ([5]; two-way ANOVA, Bonferroni): ≥ 2 µg/mL; MIC ([6]; S. lugdunensis, 1 isolate): 0.015 µg/mL (≈ 9.11 nM); MIC ([6]; Staphylococcus lugdunensis, S. lugdunensis MMX 8724, read-out: MIC): 0.015 µg/mL (≈ 9.11 nM); MIC (MSSA ATCC 29213): 0.031 µg/mL (≈ 18.8 nM); MIC:MBC (Streptococcus anginosus; S. anginosus AGS): >8; MIC (Streptococcus anginosus; ATCC33397, S. anginosus (AGS) ATCC 33397): 0.015 µg/mL (≈ 9.11 nM); MIC (Streptococcus anginosus; S. anginosus AGS, 1 isolate): 0.015 µg/mL (≈ 9.11 nM)
